Legend:
human CCR6 = biological target: T1, human CCR6 (Homo sapiens, UniProt P51684); assay: human CCR6 calcium flux activity (FLIPR, HEK293 cells stably expressing human CCR6, CCL20 stimulation); format: cell-based; conditions: HEK293 cells stably expressing human CCR6, EC80 human MIP-3 alpha/CCL20; read-out: CCR6 inhibitory activity, IC50
T1 construct: expressed in transfected cells; host or cells: HEK293
T1 sequence (P51684 1-374): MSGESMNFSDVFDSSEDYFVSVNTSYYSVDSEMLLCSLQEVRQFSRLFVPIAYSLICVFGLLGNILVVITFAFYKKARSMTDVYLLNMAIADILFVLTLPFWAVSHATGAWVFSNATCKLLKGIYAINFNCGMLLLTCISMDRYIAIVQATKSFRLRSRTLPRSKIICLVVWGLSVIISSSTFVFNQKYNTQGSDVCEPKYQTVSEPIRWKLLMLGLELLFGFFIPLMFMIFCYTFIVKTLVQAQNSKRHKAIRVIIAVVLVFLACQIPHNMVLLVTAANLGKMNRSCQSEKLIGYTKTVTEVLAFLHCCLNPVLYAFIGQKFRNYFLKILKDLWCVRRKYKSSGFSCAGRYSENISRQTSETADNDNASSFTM
Method in brief: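 Read-out is the RFUMax−RFUMin calcium signal (494/516 nm, 90 s) after EC80 CCL20 addition, fitted four-parameter for IC50. Before agonist, Fluo-4 Direct-loaded cells sat with compound 50 min at 37 °C plus 10 min at room temperature.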

[1] = in vitro liver microsome metabolic stability, human; format: in vitro ADME; conditions: Human liver microsomes, 37°C
Method in brief: (§1)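 Test compound at 1 µM final (100 µM working solution diluted 1:100) incubated at 37°C with liver microsomes in pH 7.4 phosphate buffer with NADP/G6P/G6PDH/MgCl2 regenerating system; sampled 0–30 min, LC-MS/MS vs internal standard. T1/2 = 0.693/k from remaining-fraction decay.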

[2] = in vitro liver microsome metabolic stability, rat; format: in vitro ADME; conditions: Rat liver microsomes, 37°C
Method in brief: as §1

[3] = in vitro liver microsome metabolic stability, mouse; format: in vitro ADME; conditions: Mouse liver microsomes, 37°C
Method: Preparation of working solutions for test compounds and standards: An appropriate amount of the compound was accurately weighed and dissolved in a corresponding volume of suitable solvent to prepare 1 mM stock solutions of the test compounds and standards. The stock solutions were then diluted with appropriate solvent to obtain 100 µM working solutions of the test compounds, ensuring that the DMSO content in the working solutions remained below 10%.
The internal standard compound testosterone (or tolbutamide) and its corresponding solvent, internal standard concentration (200 ng/mL), were selected based on the properties of the test compound.
• Solution A: 0.1 mol/L K2HPO4 (2.28 g K2HPO4·3H2O was dissolved in 100 mL of double-distilled water); • Solution B: 0.1 mol/L KH2PO4 (1.36 g KH2PO4 was dissolved in 100 mL of double-distilled water); • 80.2 mL of Solution A and 19.8 mL of Solution B were mixed thoroughly, and the pH was adjusted to 7.4.
37.5 mg of glycine was weighed, dissolved in 100 mL of ultrapure water, and adjusted to pH 8.0 with NaOH.
1.25 mg of glucose-6-phosphate dehydrogenase (400 U/mg) was weighed (the specific amount weighed was calculated based on the activity of the purchased glucose-6-phosphate dehydrogenase), dissolved in 1 mL of glycine buffer to a concentration of 500 U/mL, aliquoted into 20 µL per tube, and stored at -20°C for future use.
7.83 mg of NADP, 0.06 mL of D-glucose-6-phosphate (260 mg/mL), and 10.17 mg of MgCl2·6H2O were precisely weighed.
The mixture was dissolved in 1 mL of pure water. The cofactor ratio composition: NADP 10 mM, D-glucose-6-phosphate 60 mM, MgCl2·6H2O 50 mM.
The reaction system (taking a 500 µL system as an example) was composed of the following solution ratios: 416.5 µL phosphate buffer, 5 µL compound working solution, 25 µL liver microsomes, 3.5 µL glucose-6-phosphate dehydrogenase, and 50 µL cofactor solution. The total incubation volume could be adjusted according to experimental requirements.
416.5 µL of phosphate buffer was taken, 25 µL of liver microsomes, 3.5 µL of glucose-6-phosphate dehydrogenase, and 50 µL of cofactor solution were added, vortexed twice to mix, and preincubated in a 37°C water bath for 5 minutes. Then, 5 µL of the test compound working solution was added, vortexed twice to mix, each time for 2-3 seconds, and placed in a 37°C water bath to initiate the reaction, with two parallel samples set. At 0.5 min, 1 min, 2 min, 5 min, 15 min, and 30 min after the reaction, 50 µL of the mixture was taken and added to centrifuge tubes containing 200 µL of 0°C pre-cooled internal standard working solution to terminate the reaction, vortexed for 1 minute to mix, and centrifuged at 13,000 rpm for 10 minutes in a 4°C pre-cooled high-speed centrifuge. The supernatant was collected for analysis. After the compound was added and vortex-mixed, 50 µL of the mixture was rapidly transferred to a centrifuge tube containing 200 µL of a pre-cooled (0°C) internal standard working solution to terminate the reaction, vortex-mixed for 1 minute, and used as the relative zero-point sample (relative to the standard group). The sample was then placed into a 37°C water bath to initiate the reaction, and timing was started.
The sample analysis of the test compound was performed using the liquid chromatography-tandem mass spectrometry (LCMS/MS) method. The semi-quantitative determination was performed using the ratio of the analyte peak area to the internal standard peak area. The retention times of the analyte and internal standard, chromatogram acquisition, and chromatogram integration were processed using Analyst software.
The in vitro elimination rate constant k of the test compound and the control compound was determined by converting the ratio of the peak area of the test compound to the internal standard into the remaining rate, and T1/2 was then calculated according to the following formula. T1/2 = (Ln2)/(k) = (0.693)/(k) [formula] Table 3. […]

[4] = in vitro liver microsome metabolic stability, beagle dog; format: in vitro ADME; conditions: Beagle dog liver microsomes, 37°C
Method in brief: as §1

## CN(C)C(=O)c1nccc(Nc2c(NC(c3nc(Cl)ccc3F)C3(C)CC4CC4C3)c(=O)c2=O)c1O (centres unmarked) [compound 085, 4-((2-(((6-chloro-3-fluoropyridin-2-yl)(3-methylbicyclo[3.1.0]hexan-3-yl)methyl)amino)-3,4-dioxocyclobut-1-en-1-yl)amino)-3-hydroxy-N,N-dimethylpicolinamide]
Human CCR6
  IC50: 0.038 µM
[1]
  Liver microsome T1-2 (min) Human: 226.52 min
[2]
  Liver microsome T1-2 (min) Rat: 56.96 min
[3]
  Liver microsome T1-2 (min) Mouse: 54.79 min
[4]
  Liver microsome T1-2 (min) Beagle dog: 204.66 min

Reference: EP4703354A1, “COMPOUND AS CCR6 ANTAGONIST, AND PHARMACEUTICAL COMPOSITION AND USE THEREOF” (Wuhan Createrna Science and Technology Co.,Ltd., priority 2023, dated 2024)
